# From paper PMC9090415, “Discovery of small molecule inhibitors of Plasmodium falciparum apicoplast DNA polymerase” (Journal of Enzyme Inhibition and Medicinal Chemistry, 2022)
# Biological target: P. falciparum apicoplast DNA polymerase (Pf-apPOL) (Plasmodium falciparum, UniProt Q8ILY1)
# Assay: Fluorescence-based high-throughput DNA polymerase assay (molecular beacon), primary screen and dose-response;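 for % inhibition ApPOL 90': test concentration in µM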;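 for % inhibition apPOL 180': test concentration in µM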
# Format: biochemical
# Summary of the method: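 Single-point screening used 10 µM compound with 20 nM polymerase, 20 nM hairpin substrate and 6 µM dNTPs for 90 min at 25 °C. Confirmatory titrations (2.5–80 µM) followed fluorescence at three times, and IC50 was derived from a fit including a cooperativity term n.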
# [1] = primary screen value of the 186 hits; unit not given; 90 min, 10 µM
# P. falciparum apicoplast DNA polymerase (Pf-apPOL), sequence (Q8ILY1 entry or part of it): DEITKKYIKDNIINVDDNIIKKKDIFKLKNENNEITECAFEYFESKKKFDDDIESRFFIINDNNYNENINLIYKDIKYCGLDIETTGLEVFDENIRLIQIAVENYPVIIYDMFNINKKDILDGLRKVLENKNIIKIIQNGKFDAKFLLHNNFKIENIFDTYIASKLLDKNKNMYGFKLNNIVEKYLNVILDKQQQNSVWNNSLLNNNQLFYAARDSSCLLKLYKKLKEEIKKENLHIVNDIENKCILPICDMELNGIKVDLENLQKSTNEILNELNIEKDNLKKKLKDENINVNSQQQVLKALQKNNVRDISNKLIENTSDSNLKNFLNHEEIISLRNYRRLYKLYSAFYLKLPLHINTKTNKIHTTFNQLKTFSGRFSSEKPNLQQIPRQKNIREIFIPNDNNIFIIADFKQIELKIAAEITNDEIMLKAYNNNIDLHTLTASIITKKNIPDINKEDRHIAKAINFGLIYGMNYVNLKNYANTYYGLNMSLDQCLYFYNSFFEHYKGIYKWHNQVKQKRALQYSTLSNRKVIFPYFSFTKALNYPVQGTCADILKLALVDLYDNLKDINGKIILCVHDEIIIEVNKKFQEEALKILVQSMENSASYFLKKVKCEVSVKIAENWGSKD
compound,measurement,setting,value
Nc1ncnc(NC2CCCCC2)c1[N+](=O)[O-] [KU0193018],% inhibition Apo pol 10',DRC-1; concentration 2.5; 10',-4.033%
same,% inhibition Apol 90',DRC-1; concentration 2.5; 90',1.71%
same,% inhibition apPOL 180',DRC-1; concentration 2.5; 180',7.961%
same,% inhibition Apo pol 10',DRC-1; concentration 5; 10',-4.7638%
same,% inhibition Apol 90',DRC-1; concentration 5; 90',3.18%
same,% inhibition apPOL 180',DRC-1; concentration 5; 180',11.4393%
same,% inhibition Apo pol 10',DRC-1; concentration 10; 10',7.571%
same,% inhibition Apol 90',DRC-1; concentration 10; 90',18.3925%
same,% inhibition apPOL 180',DRC-1; concentration 10; 180',32.1574%
same,% inhibition Apo pol 10',DRC-1; concentration 20; 10',20.9545%
same,% inhibition Apol 90',DRC-1; concentration 20; 90',38.4286%
same,% inhibition apPOL 180',DRC-1; concentration 20; 180',56.6751%
same,% inhibition Apo pol 10',DRC-1; concentration 40; 10',53.9116%
same,% inhibition Apol 90',DRC-1; concentration 40; 90',70.3163%
same,% inhibition apPOL 180',DRC-1; concentration 40; 180',83.6838%
same,% inhibition Apo pol 10',DRC-1; concentration 80 (unit not given); 10',70.2616%
same,% inhibition Apol 90',DRC-1; concentration 80; 90',82.4548%
same,% inhibition apPOL 180',DRC-1; concentration 80; 180',91.4179%
same,% inhibition Apo pol 5',DRC-2; concentration 2.5; 5',-2.47%
same,% inhibition Apol 40',DRC-2; concentration 2.5; 40',-1.57%
same,% inhibition ApPOL 90',DRC-2; concentration 2.5; 90',-2.42%
same,% inhibition apPOL 180',DRC-2; concentration 2.5; 180',-6.58%
same,% inhibition Apo pol 5',DRC-2; concentration 5; 5',4%
same,% inhibition Apol 40',DRC-2; concentration 5; 40',3.32%
same,% inhibition ApPOL 90',DRC-2; concentration 5; 90',2.51%
same,% inhibition apPOL 180',DRC-2; concentration 5; 180',-3.38%
same,% inhibition Apo pol 5',DRC-2; concentration 10; 5',20%
same,% inhibition Apol 40',DRC-2; concentration 10; 40',19%
same,% inhibition ApPOL 90',DRC-2; concentration 10; 90',15%
same,% inhibition apPOL 180',DRC-2; concentration 10; 180',6%
same,% inhibition Apo pol 5',DRC-2; concentration 20; 5',37%
same,% inhibition Apol 40',DRC-2; concentration 20; 40',42%
same,% inhibition ApPOL 90',DRC-2; concentration 20; 90',38%
same,% inhibition apPOL 180',DRC-2; concentration 20; 180',26%
same,% inhibition Apo pol 5',DRC-2; concentration 40; 5',50%
same,% inhibition Apol 40',DRC-2; concentration 40; 40',64%
same,% inhibition ApPOL 90',DRC-2; concentration 40; 90',63%
same,% inhibition apPOL 180',DRC-2; concentration 40; 180',55%
same,% inhibition Apo pol 5',DRC-2; concentration 80; 5',52%
same,% inhibition Apol 40',DRC-2; concentration 80; 40',71%
same,% inhibition ApPOL 90',DRC-2; concentration 80; 90',72%
same,% inhibition apPOL 180',DRC-2; concentration 80; 180',69%
same,DNA Pol,[1],25
same,DNA Pol,"primary screen value; head prints only 'DNA Pol'; 90 min, 10 µM",25
COc1ccc(-c2cc(=O)c3cc(O)ccc3o2)cc1OC [KU0193655],% inhibition Apo pol 10',DRC-1; 10'; concentration 2.5,-0.1967%
same,% inhibition Apo pol 10',DRC-1; 10'; concentration 5,8.174%
same,% inhibition Apo pol 10',DRC-1; 10'; concentration 10,18.1231%
same,% inhibition Apo pol 10',DRC-1; 10'; concentration 20,34.6118%
same,% inhibition Apo pol 10',DRC-1; 10'; concentration 40,62.4482%
same,% inhibition Apo pol 10',DRC-1; 10'; concentration 80,84.2826%
same,% inhibition Apol 90',DRC-1; 90'; concentration 2.5,2.413%
same,% inhibition Apol 90',DRC-1; 90'; concentration 5,7.049%
same,% inhibition Apol 90',DRC-1; 90'; concentration 10,17.1119%
same,% inhibition Apol 90',DRC-1; 90'; concentration 20,31.7706%
same,% inhibition Apol 90',DRC-1; 90'; concentration 40,60.6022%
same,% inhibition Apol 90',DRC-1; 90'; concentration 80,83.5295%
same,% inhibition apPOL 180',DRC-1; 180'; concentration 2.5,2.832%
same,% inhibition apPOL 180',DRC-1; 180'; concentration 5,6.576%
same,% inhibition apPOL 180',DRC-1; 180'; concentration 10,16.442%
same,% inhibition apPOL 180',DRC-1; 180'; concentration 20,31.1115%
same,% inhibition apPOL 180',DRC-1; 180'; concentration 40,58.5037%
same,% inhibition apPOL 180',DRC-1; 180'; concentration 80,84.0263%
same,% inhibition Apo pol 5',DRC-2; 5'; concentration 2.5,-0.529%
same,% inhibition Apo pol 5',DRC-2; 5'; concentration 5,0.718%
same,% inhibition Apo pol 5',DRC-2; 5'; concentration 10,15%
same,% inhibition Apo pol 5',DRC-2; 5'; concentration 20,23%
same,% inhibition Apo pol 5',DRC-2; 5'; concentration 40,39%
same,% inhibition Apo pol 5',DRC-2; 5'; concentration 80,47%
same,% inhibition Apol 40',DRC-2; 40'; concentration 2.5,1.36%
same,% inhibition Apol 40',DRC-2; 40'; concentration 5,3.64%
same,% inhibition Apol 40',DRC-2; 40'; concentration 10,19%
same,% inhibition Apol 40',DRC-2; 40'; concentration 20,29%
same,% inhibition Apol 40',DRC-2; 40'; concentration 40,49%
same,% inhibition Apol 40',DRC-2; 40'; concentration 80,61%
same,% inhibition ApPOL 90',DRC-2; 90'; concentration 2.5,0.778%
same,% inhibition ApPOL 90',DRC-2; 90'; concentration 5,6%
same,% inhibition ApPOL 90',DRC-2; 90'; concentration 10,20%
same,% inhibition ApPOL 90',DRC-2; 90'; concentration 20,32%
same,% inhibition ApPOL 90',DRC-2; 90'; concentration 40,53%
same,% inhibition ApPOL 90',DRC-2; 90'; concentration 80,65%
same,% inhibition apPOL 180',DRC-2; 180'; concentration 2.5,-1.88%
same,% inhibition apPOL 180',DRC-2; 180'; concentration 5,5%
same,% inhibition apPOL 180',DRC-2; 180'; concentration 10,21%
same,% inhibition apPOL 180',DRC-2; 180'; concentration 20,34%
same,% inhibition apPOL 180',DRC-2; 180'; concentration 40,56%
same,% inhibition apPOL 180',DRC-2; 180'; concentration 80,68%
same,DNA Pol,"primary screen value by plate and well; 90 min, 10 µM",27
same,DNA Pol,[1],27
COCCN(CCOC)Cc1c(O)ccc2c1OC(=Cc1cc(Br)ccc1OC)C2=O [KU0198471],DNA Pol,"'DNA Pol' of the 186 hits list (primary screen result); unit not given; 90 min, 10 µM",63
same,% inhibition Apo pol 10',DRC-1; 10'; concentration 2.5,-2.842%
same,% inhibition Apo pol 10',DRC-1; 10'; concentration 5,2.517%
same,% inhibition Apo pol 10',DRC-1; 10'; concentration 10,15.0312%
same,% inhibition Apo pol 10',DRC-1; 10'; concentration 20,43.5523%
same,% inhibition Apo pol 10',DRC-1; 10'; concentration 40,79.9378%
same,% inhibition Apo pol 10',DRC-1; 10'; concentration 80,100.142%
same,% inhibition Apol 90',DRC-1; 90'; concentration 2.5,0.2446%
same,% inhibition Apol 90',DRC-1; 90'; concentration 5,8.305%
same,% inhibition Apol 90',DRC-1; 90'; concentration 10,20.0345%
same,% inhibition Apol 90',DRC-1; 90'; concentration 20,57.0182%
same,% inhibition Apol 90',DRC-1; 90'; concentration 40,88.9313%
same,% inhibition Apol 90',DRC-1; 90'; concentration 80,100.102%
same,% inhibition apPOL 180',DRC-1; 180'; concentration 2.5,3.8606%
same,% inhibition apPOL 180',DRC-1; 180'; concentration 5,14.5947%
same,% inhibition apPOL 180',DRC-1; 180'; concentration 10,28.8657%
same,% inhibition apPOL 180',DRC-1; 180'; concentration 20,74.003%
same,% inhibition apPOL 180',DRC-1; 180'; concentration 40,99.2826%
same,% inhibition apPOL 180',DRC-1; 180'; concentration 80,101.453%
same,% inhibition Apo pol 5',"DRC-2, 5', concentration 2.5 (unit not given)",10%
same,% inhibition Apol 40',"DRC-2, 40', concentration 2.5 (unit not given)",10%
same,% inhibition Apo pol 5',DRC-2; 5'; concentration 2.5,10%
same,% inhibition Apo pol 5',DRC-2; 5'; concentration 5,10%
same,% inhibition Apo pol 5',DRC-2; 5'; concentration 5 (unit not given),10%
same,% inhibition Apo pol 5',DRC-2; 5'; concentration 10,33%
same,% inhibition Apo pol 5',DRC-2; 5'; concentration 20,48%
same,% inhibition Apo pol 5',DRC-2; 5'; concentration 40,59%
same,% inhibition Apo pol 5',DRC-2; 5'; concentration 80,60%
same,% inhibition Apol 40',DRC-2; 40'; concentration 2.5,10%
same,% inhibition Apol 40',DRC-2; 40'; concentration 5,6%
same,% inhibition Apol 40',DRC-2; 40'; concentration 10,36%
same,% inhibition Apol 40',DRC-2; 40'; concentration 20,53%
same,% inhibition Apol 40',DRC-2; 40'; concentration 40,73%
same,% inhibition Apol 40',DRC-2; 40'; concentration 80,79%
same,% inhibition ApPOL 90',DRC-2; 90'; concentration 2.5,10%
same,% inhibition ApPOL 90',DRC-2; 90'; concentration 2.5 (unit not given),10%
same,% inhibition ApPOL 90',DRC-2; 90'; concentration 5,-0.305%
same,% inhibition ApPOL 90',DRC-2; 90'; concentration 10,34%
same,% inhibition ApPOL 90',DRC-2; 90'; concentration 20,52%
same,% inhibition ApPOL 90',DRC-2; 90'; concentration 40,75%
same,% inhibition ApPOL 90',DRC-2; 90'; concentration 80,82%
same,% inhibition apPOL 180',DRC-2; 180'; concentration 2.5,4.6%
same,% inhibition apPOL 180',DRC-2; 180'; concentration 5,-68%
same,% inhibition apPOL 180',DRC-2; 180'; concentration 10,25%
same,% inhibition apPOL 180',DRC-2; 180'; concentration 20,41%
same,% inhibition apPOL 180',DRC-2; 180'; concentration 40,72%
same,% inhibition apPOL 180',DRC-2; 180'; concentration 80,85%
same,DNA Pol,"primary screen value of the library well; unit not given; 90 min, 10 µM",63
